Experimental data from article PMC10541411 (Nature Communications, 2023).
Ends that are not written are not given here. Me2 = dimethyl-lysine

Experiments:
[1] = target: 53BP1^TT-CC (tandem Tudor domain of 53BP1, residues 1481-1603, E1549C/E1567C), disulfide-crosslinked homodimer (UniProt Q12888); experiment: AUC; sedimentation velocity of 53BP1^TT-CC (20 uM) without DTT; 20 °C, 20 mM sodium phosphate pH 7.5, 50 mM NaCl
[2] = target: T1, 53BP1^TT-PN (E1549P/D1550N) (Homo sapiens, UniProt Q12888, D1550N/E1549P); experiment: 1H-15N HSQC NMR titration of 15N-labeled 53BP1TT-PN; type: binding; details: up to fourfold molar excess
T1 construct: The tandem Tudor domain of 53BP1 (53BP1^TT, residues 1481–1603) was purified as previously described; made in house
Description: (§1) All NMR data were collected at 25 °C on a 700 MHz Bruker Avance III spectrometer equipped with a cryoprobe. Data were processed and analyzed with NMRPipe[54] and NMRViewJ[55],[56].
(§2) To probe chemical shift perturbations, ^1H-^15N HSQC spectra were acquired on the following samples: 0.2 mM ^15N-labeled 53BP1^TT WT and 53BP1^TT-PN in 25 mM sodium phosphate, pH 7.0, 1.5 mM NaN3, 0.3 mM DSS, 90% H2O/10% D2O, free and incrementally titrated with various non-labeled inhibitors (UNC1078, UNC1118, UNC2170, UNC2991, UNC3474), as well as with H4KC20me2 and p53K382me2 peptides. Chemical shift perturbations (Δδ) were calculated using the Eq. (1):1 Δδ=(ΔN/5)^2+ΔH^2 where ΔN and ΔH are the corresponding differences in ^15N and ^1H chemical shifts between the bound and free forms of 53BP1.

53BP1^TT = target: T2, 53BP1^TT (Homo sapiens, UniProt Q12888); parameters: method as in PMID 25590533; details: previously identified; read-out: dissociation constant (Kd); cited from earlier work
T2 construct: The tandem Tudor domain of 53BP1 (53BP1^TT, residues 1481–1603) was purified as previously described; made in house; host or cells: E. coli (only for the SAXS sample)

53BP1^TT homodimer = target: T3, 53BP1^TT homodimer (Homo sapiens, UniProt Q12888); experiment: 2D longitudinal 1H-15N-heteronuclear ZZ-exchange NMR spectroscopy, protomer interconversion; type: binding; details: 25 °C, 1 mM 15N-labeled 53BP1TT and 9 mM UNC2170, signals of E1524
T3 construct: The tandem Tudor domain of 53BP1 (53BP1^TT, residues 1481–1603) was purified as previously described; made in house; host or cells: E. coli (only for the SAXS sample)
Description: as §1
The protomer interconversion rates in the 53BP1^TT-UNC2970 complex were determined using 2D longitudinal ^1H-^15N-heteronuclear ZZ-exchange NMR spectroscopy[22]–[24]. For these experiments, a series of 11 spectra were acquired with mixing times of 0, 100, 200, 300, 400, 500, 600, 700, 800, 900, and 1000 ms in 25 mM sodium phosphate, pH 7.0, 100 mM NaCl, 1.5 mM NaN3, 0.3 mM DSS, 90% H2O/10% D2O. The interconversion rates were obtained from nonlinear fitting of auto peak and exchange peak intensities accounting for two-site exchange and ^15N R1 relaxation using the equations previously described for a two-state model.

53BP1^TT WT = 53BP1^TT WT (Homo sapiens, UniProt Q12888); experiment: 1H-15N HSQC NMR titration of 15N-labeled wild-type 53BP1TT; type: binding; parameters: The tandem Tudor domain of 53BP1 (53BP1^TT, residues 1481–1603) was purified as previously described; made in house; host or cells: E. coli (only for the SAXS sample); details: 15N-labeled WT 53BP1TT
Description: as §1, §2

[3] = target: T4, 53BP1^TT (tandem Tudor domain of 53BP1, residues 1481–1603) (Homo sapiens, UniProt Q12888); experiment: Isothermal titration calorimetry (ITC) of small molecules with 53BP1TT; type: binding; details: 25 °C, 50 mM Tris-HCl pH 7.5, 50 mM NaCl, one-site model; read-out: Kd (apparent, ITC)
T4 construct: The tandem Tudor domain of 53BP1 (53BP1^TT, residues 1481–1603) was purified as previously described; made in house; host or cells: E. coli (only for the SAXS sample)
Description: The ITC measurements were performed at 25 °C using a MicroCal iTC200 calorimeter. 53BP1^TT and the small molecules (UNC2991, UNC3351, UNC3474) were in 50 mM Tris-HCl, pH 7.5, 50 mM NaCl. In a typical run, 53BP1^TT was in the reaction cell at a concentration of 150 to 160 μM while the small molecule, in the titration syringe at a concentration of 0.8–2 mM, was delivered as 2 μL injections every 3 min. The titrations were paired with control experiments for heat of dilution. The titration of 53BP1^TT with UNC1118 was performed using a MicroCal VP-ITC calorimeter. ITC data were fitted to a one-site model using a Levenberg-Marquardt non-linear regression algorithm programmed in the Origin 7.0 software.
Supplementary Figure 1 | Interaction of 53BP1TT with small molecules probed using isothermal titration calorimetry (ITC) and small-angle X-ray scattering (SAXS). a, ITC of the interaction of UNC2991, UNC3351 and UNC3474 with 53BP1TT. Raw titration data and integrated heat measurements are shown. Indicated apparent Kds with associated standard deviations were determined by nonlinear least-squares analysis.
1.33 and 2 mg/mL with an exposure time of 0.5 s, without and with 10-fold molar excess of UNC1118 or UNC3474. The error bars in the scattering curves were generated using PRIMUS in the data analysis software ATSAS 2.4.2 and represent mean ± standard deviation calculated from signal intensity scaling and merging for the three different 53BP1TT concentrations. The Guinier plots, dimensionless Kratky plots and pair distance distribution functions derived from the SAXS data are shown. Also shown are the crystal structures of 53BP1TT and 53BP1TT-UNC3474 overlaid to the corresponding SAXS-based ab initio molecular envelopes generated using GASBOR 2.3i. c, Interaction of UNC1118 with 53BP1TT characterized using ITC (left) and NMR spectroscopy (right).
For the ITC, raw titration data and integrated heat measurements are shown. The indicated Kd with associated standard deviation was determined by nonlinear least-squares analysis.
(1 picture or pasted object on this page, not shown here)

T1 sequence (Q12888 1481-1603 E1549P/D1550N): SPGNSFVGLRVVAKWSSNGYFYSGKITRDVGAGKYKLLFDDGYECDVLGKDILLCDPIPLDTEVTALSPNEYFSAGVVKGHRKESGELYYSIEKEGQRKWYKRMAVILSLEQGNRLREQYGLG
Chain of 53BP1^TT WT (Q12888 1481-1603): as the sequence (Q12888 1481-1603 E1549P/D1550N) above, with P69E, N70D counted along it
T3 sequence (Q12888 1481-1603): as the sequence (Q12888 1481-1603 E1549P/D1550N) above, with P69E, N70D counted along it
T4 sequence (Q12888 1481-1603): as the sequence (Q12888 1481-1603 E1549P/D1550N) above, with P69E, N70D counted along it
T2 sequence (Q12888 1481-1603): as the sequence (Q12888 1481-1603 E1549P/D1550N) above, with P69E, N70D counted along it

Row | Molecule | interaction with 53BP1TT-PN (1H-15N HSQC titration) [2] | changes in signal positions in the 1H-15N HSQC spectrum of 53BP1TT upon titration (53BP1^TT WT) | Kd [3] [µM] | also measured
1 | 53BP1^TT-CC (tandem Tudor domain of 53BP1, residues 1481-1603, E1549C/E1567C), disulfide-crosslinked homodimer (from UniProt Q12888 1481-1603) (domain or fragment) | – | – | – | stoichiometry N [1]: 2
2 | CC(C)(C)NCCCNC(=O)c1cccc(Br)c1 [UNC2170] | did not interact | slow exchange on the chemical shift time scale | – | Kd (53BP1^TT): 22 ± 2.5 µM; interconversion rate kAB between the two protomers in the 53BP1TT dimer (53BP1^TT homodimer): 1.7 s⁻¹; interconversion rate kBA between the two protomers in the 53BP1TT dimer (53BP1^TT homodimer): 1.2 s⁻¹
3 | CC(C)(C)NCCCNC(=O)c1cccc(I)c1 [UNC2991] | did not interact | slow exchange on the chemical shift time scale | 3.9 ± 0.4 | –
4 | CC(C)(C)NCCCNC(=O)c1cccc(C(F)(F)F)c1 [UNC3351] | – | slow exchange on the chemical shift time scale | 6.8 ± 0.4 | –
5 | H4KC20me2: dimethylated histone H4 peptide (residues 12–25) with chemically installed dimethyl-lysine analog (KGGAKRHRCVLRDN; dimethyl-lysine analog at position 20 (KC20me2), installed chemically) [reference compound] | bound | – | – | –
6 | p53K382me2: dimethylated p53 peptide (residues 377–386) purchased from GenScript (TSRHKK(Me2)LMFK) [reference compound] | bound | – | – | –
